This note sets out measurements from the supplement of paper PMC10307832.

What all share (experiment): relative viability (nuclei count vs DMSO), 5 days (fraction); higher = more cells survive
Compound in the test “Motesanib + Olaparib”: CC1(C)CNc2cc(NC(=O)c3cccnc3NCc3ccncc3)ccc21 [Motesanib] + O=C(c1cc(Cc2n[nH]c(=O)c3ccccc23)ccc1F)N1CCN(C(=O)C2CC2)CC1 [Olaparib] (partner 8 µM)
A digest of the protocol: (§1)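 Lung cancer cell lines were pin-tool dosed in 1536-well plates on the day after seeding, with either a lone drug or a fixed anchor-drug dose plus five library-drug doses (not always all listed) in √10 steps. Nuclei were counted on 4× images after 5 days. Relative viability is the ratio of treated-well to vehicle-well nuclei counts, with each value a median of duplicate plates.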

Compound in the test “Motesanib + Pictilisib”: CC1(C)CNc2cc(NC(=O)c3cccnc3NCc3ccncc3)ccc21 [Motesanib] + CS(=O)(=O)N1CCN(Cc2cc3nc(-c4cccc5[nH]ncc45)nc(N4CCOCC4)c3s2)CC1 [Pictilisib] (partner 1 µM)
A digest of the protocol:
as §1

Compound in the test “Motesanib + Navitoclax”: CC1(C)CNc2cc(NC(=O)c3cccnc3NCc3ccncc3)ccc21 [Motesanib] + CC1(C)CCC(c2ccc(Cl)cc2)=C(CN2CCN(c3ccc(C(=O)NS(=O)(=O)c4ccc(N[C@H](CCN5CCOCC5)CSc5ccccc5)c(S(=O)(=O)C(F)(F)F)c4)cc3)CC2)C1 [Navitoclax] (partner 0.5 µM)
The gist of the method:
as §1

Compound in test [1]: C[C@@]1(C(=O)Nc2ccc(F)nc2)CCCN1c1nc(Nc2cc(C3CC3)n[nH]2)c2cccn2n1 + Cc1nc(Nc2ncc(C(=O)Nc3c(C)cccc3Cl)s2)cc(N2CCN(CCO)CC2)n1 [Dasatinib] (partner 0.075 µM)
A digest of the protocol: as §1

Turning to UMC-11, the relative viability with Motesanib + Olaparib (first compound 0.01 µM) stood at 0.395; with Motesanib + Olaparib (first compound 0.03162 µM), 0.356; with Motesanib + Olaparib (first compound 0.1 µM), 0.367; in the test with Motesanib + Olaparib (first compound 0.3162 µM) it was 0.378; in the test with Motesanib + Olaparib (first compound 1 µM), 0.34; with Motesanib + Pictilisib (first compound 0.01 µM), 0.778. The relative viability in the test with Motesanib + Pictilisib (first compound 0.03162 µM) was 0.923; with Motesanib + Pictilisib (first compound 0.1 µM), 0.5; with Motesanib + Pictilisib (first compound 0.3162 µM), 0.759; in the test with Motesanib + Pictilisib (first compound 1 µM), 0.863; in the test with Motesanib + Navitoclax (first compound 0.01 µM), 0.341; with Motesanib + Navitoclax (first compound 0.03162 µM), 0.312. For the same cell line, the relative viability was determined as 0.31 in the test with Motesanib + Navitoclax (first compound 0.1 µM); 0.302 with Motesanib + Navitoclax (first compound 0.3162 µM); 0.318 with Motesanib + Navitoclax (first compound 1 µM); 0.478 in test [1] (first compound 0.04 µM); 0.471 in test [1] (first compound 0.1265 µM); 0.399 in test [1] (first compound 0.4 µM). Moreover, in test [1] (first compound 1.265 µM), the relative viability turned out to be 0.278.
